In patent publication EP0539204B1 (priority 1991, dated 1993):
Converted amounts (≈) assume the structure as drawn.

Key:
[1] = molecular target: N2 influenza neuraminidase (Influenza A virus, UniProt Q91MA2); assay: biochemical; assay type: biochemical, influenza virus (virion X31); settings: for NA1: pH 6.5
[2] = test system: influenza B/Victoria/102/85; assay: microbe, parasite or virus in culture; assay type: cell-based; settings: for IC50: Influenza B virus, MDCK, 72 h, read-out: I50 Plaque Assay Flu B
[3] = test system: influenza A/Singapore/1/57 (H2N2); assay: microbe, parasite or virus in culture; assay type: cell-based; settings: for I50 Plaque Assay Flu A: reduction of viral plaque formation in MDCK cells, 3 days at 37°C; for IC50: Influenza A virus, H2N2, MDCK, 72 h, read-out: I50 Plaque Assay Flu A

N2 influenza neuraminidase, sequence (Q91MA2 whole entry, looked up): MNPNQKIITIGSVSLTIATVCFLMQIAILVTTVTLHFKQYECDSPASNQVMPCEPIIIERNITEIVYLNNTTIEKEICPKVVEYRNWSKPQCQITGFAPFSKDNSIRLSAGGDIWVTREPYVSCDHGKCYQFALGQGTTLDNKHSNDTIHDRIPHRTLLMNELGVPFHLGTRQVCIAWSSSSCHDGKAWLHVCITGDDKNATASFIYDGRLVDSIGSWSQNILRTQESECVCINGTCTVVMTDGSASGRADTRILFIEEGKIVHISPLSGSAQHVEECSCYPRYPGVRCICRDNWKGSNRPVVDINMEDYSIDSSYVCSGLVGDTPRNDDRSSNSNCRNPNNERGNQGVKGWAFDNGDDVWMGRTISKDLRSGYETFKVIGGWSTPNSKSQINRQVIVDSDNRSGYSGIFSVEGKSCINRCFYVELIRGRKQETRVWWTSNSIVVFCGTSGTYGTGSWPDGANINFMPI

Question: For “5-(Acetylamino)-4-[[amino(aminoimino)methyl]amino]-2,6-anhydro-3,4,5-trideoxy-D-glycero-D-galacto-non-2-enonic acid [Example 1]”, which NA1 [1] is on record?
Answer: The NA1 was 1.3 µg/mL.

Question: And the “I50 Plaque Assay Flu B” value [2]?
Answer: Its value is 3.0 µg/mL.

Question: What about the “I50 Plaque Assay Flu A” value [3] of the same molecule?
Answer: Its value is 2.9 µg/mL.

Question: Which NA1 [1] does the source give for “5-(Acetylamino)-4-[[amino(hydroxyimino)methyl]amino]-2,6-anhydro-3,4,5-trideoxy-D-glycero-D-galacto-non-2-enonic acid [Example 2]” here?
Answer: Its NA1 is 0.6 µg/mL.

Question: What about the “I50 Plaque Assay Flu B” value [2] of the same molecule?
Answer: The value was <0.1 µg/mL.

Question: What about the “I50 Plaque Assay Flu A” value [3] of the same molecule?
Answer: Its value is 0.1 µg/mL.

Question: How did the IC50 [1] turn out when `CNC(=N)N[C@H]1C=C(C(=O)O)O[C@@H]([C@H](O)[C@H](O)CO)[C@@H]1NC(C)=O` [Example 3, 5-(Acetylamino)-4-[[amino(methylimino)methyl]amino]-2,6-anhydro-3,4,5-trideoxy-D-glycero-D-galacto-non-2-enonic acid] was run?
Answer: Its IC50 is 12.1 µM.

Question: And the IC50 [3]?
Answer: The IC50 was 3 µg/mL (≈ 8.66 µM).

Question: `CC(=O)N[C@H]1[C@H]([C@H](O)[C@H](O)CO)OC(C(=O)O)=C[C@@H]1NC(=N)N[N+](=O)[O-]` [Example 4, 5-(Acetylamino)-4-[[amino(nitroimino)methyl]amino]-2,6-anhydro-3,4,5-trideoxy-D-glycero-D-galacto-non-2-enonic acid] was tested. Which IC50 [1] did it give?
Answer: The IC50 was 2.65 µM.

Question: And the IC50 [2]?
Answer: The IC50 was 24 µg/mL (≈ 63.6 µM).

Question: What about the IC50 [3] of the same molecule?
Answer: The IC50 was 30 µg/mL (≈ 79.5 µM).

Question: Which IC50 [1] does the source give for `CCOC(=O)NC(=N)N[C@H]1C=C(C(=O)O)O[C@@H]([C@H](O)[C@H](O)CO)[C@@H]1NC(C)=O` [Example 5, 5-(Acetylamino)-4-[[amino(ethoxycarbonylimino)methyl]amino]-2,6-anhydro-3,4,5-trideoxy-D-glycero-D-galacto-non-2-enonic acid] here?
Answer: Its IC50 is 17.1 µM.

Question: And the IC50 [2]?
Answer: The IC50 was 0.6 µg/mL (≈ 1.48 µM).

Question: What about the IC50 [3] of the same molecule?
Answer: Its IC50 is 1.7 µg/mL (≈ 4.2 µM).
